# Source: patent US9119805B2, “Therapy and prevention of problem drinking” (THE UNIVERSITY OF SYDNEY, priority 2009, dated 2015)
# “Also recorded” adds a separate entry of the source.
# Experiments:
# P rats [1] = experiment: Lickometer choice of Vodka Cruiser versus 3% sucrose after acute oxytocin in alcohol-exposed P rats (Example 1); assay type: in vivo, rat
# Text: P rats (8 female and 8 male P rats) were provided by Professor Andrew Lawrence at the Howard Florey Institute, Melbourne, Australia. The animals were of adolescent age (i.e., 28 days-old) on arrival at the animal house. Animals were housed in same-sex cages at a density of 3-4 rats per cage. Over the following 2 months, animals received intermittent exposure to various alcoholic beverages in their home cages e.g., white wine, red wine, beer, Vodka Cruiser, Bacardi Breezer, but were alcohol-free for the month preceding testing.
# Testing occurred in a lickometer apparatus. Rats were placed in a small metal cage where they have a choice of two tubes for supply of liquids, wherein the tube were designed such that every third lick at one tube delivered a small drop (0.07 ml) of 3% (w/v) sucrose solution, and every third lick at the other tube delivered a small amount of alcohol-containing beverage, in particular Vodka Cruiser (Raspberry Flavor), containing 5.0% (w/v) ethanol. Rats were exposed daily to 70 min sessions in the lickometer until their intake of sucrose and/or alcohol and preferences for these beverages had stabilized.
# One-half of the rats being tested were injected intra-peritoneally (I/P) with a single dosage of 0.3 mg/kg oxytocin, administered 10 min before their daily drinking session. The following day, these animals received a normal baseline test session with no further oxytocin dosing. The following day, one-half of the animals were administered I/P with 1 mg/kg oxytocin 10 min before the test session. Normal drinking sessions then continued for a further 4 days. During the same period, the other one-half of the rats were administered a placebo (vehicle) lacking oxytocin. Animals receiving the placebo were treated with oxytocin in exactly the same sequence as the treatment group, commencing one week after the start of testing. A final test to determine alcohol intake and alcohol preference was conducted after 55 days, to determine whether or not oxytocin induced lasting changes in drinking behavior.
# P rats [2] = experiment: Lickometer alcohol preference in alcohol-naïve P rats pre-treated with 10 daily oxytocin injections (Example 2); assay type: in vivo, rat
# Protocol: P rats (8 female and 6 male P rats) of adult age (i.e., 150 days) were used in this study. Animals were maintained as described in example 1, however they received no alcohol prior to testing.
# One-half of the rats (n=4 female and n=3 male) were given 10 injections of 1 mg/kg oxytocin (a single I/P injection per day for a total of 10 days). The other half of the rats received equivalent injections of placebo/vehicle lacking oxytocin. Two weeks later, the alcohol preferences of both sets of alcohol-naïve animals were tested. The same alcohol and alcohol-free solutions were employed as in example 1, and testing conditions were in the same lickometer apparatus. Testing in the lickometer (1×70 min session per day) continued for a total of 10 days during which time intake of sucrose and Vodka Cruiser were measured.
# [3] = test system: alcohol-dependent adults and non-dependent problem drinkers; experiment: Human Study 3: chronic (4 week) intranasal oxytocin, double-blind placebo-controlled; assay type: in vivo
# Protocol: In a third clinical study in humans, a double-blind, randomized and placebo-controlled study is conducted to determine the effect(s) of intranasal oxytocin therapy on alcohol self-administration in a population of alcohol-dependent adults and in a population of non-dependent problem drinkers. This study determines safety and efficacy of chronic intranasal oxytocin therapy for problem drinking.
# At least 30 male and female alcohol-dependent adults and non-dependent problem drinkers are recruited according to the protocols described in the preceding examples hereof, to participate in a trial investigating chronic (4 week) intranasal oxytocin therapy for problem drinking e.g., alcohol-dependent subjects having a current diagnosis of alcohol dependence according to the Diagnostic and Statistical Manual of Mental Disorders, Fourth Edition (DSM-IV) as determined by the Structured Clinical Interview for the DSM-IV (SCID-IV), and non-dependent subjects scoring higher than 8 on AUDIT. Exclusion criteria are as indicated in the preceding examples.
# All subjects are tested for baseline SCID-IV, AUDIT, PDQ, 90-day TLFB, DASS-21, PANAS, AUQ, FTND, body mass index (BMI), urine toxicology, bloods for baseline oxytocin and cortisol, liver function testing, heart rate (HR), blood pressure (BP), and ECG, and females are pregnancy-tested and their menstrual cycles determined, as described herein above for Study 2. Neuropsychological evaluations e.g., according to CANTAB are also performed. Additionally, subjects are subjected to attention bias assessment task testing, wherein attention biases to alcohol-related cues are determined using e.g., stroop and dot-probe methodology. Subjects also participate in a reward learning computer task, to assess motivation for their alcohol consumption. Based on their test results, subjects are selected for recruitment in the study.
# Recruited subjects are administered placebo or oxytocin intranasally (80 IU per day: 40 IU at 9:00 am and 40 IU at 9:00 pm) over a period of 28 days, following completion of baseline measurements. Subjects are instructed on self-administration procedures and given an initial 14 day supply of medication. Participants attend a mid-point assessment where they will receive the remaining 14 day supply of medication. Drug administration commences on the evening of the day of the clinical and medical interview and ceases on a morning 28 days later, after 56 doses have been administered. Subjects are randomized to oxytocin-receiving or placebo-receiving groups, and the groups are stratified according to gender, age, and drinking behavior.
# Recruited subjects are also fitted with an actigraphy watch and complete a sleep diary over the following two week period. The actigraphy watches provide information on sleep/wake cycles and light exposure which play an important role in the psychopathology of alcohol misuse. Participants also complete daily self-tests of drinking behavior (AUQ), mood (PANAS), and report on adverse effects of medication. All participants are contacted weekly beginning after 3 days from the commencement of therapy, to determine compliance and adverse events.
# Subjects returning to the BMRI on the afternoon of the 14th day of testing are evaluated i.e., the mid-point assessment. Bloods are taken for analysis of plasma oxytocin and cortisol levels as well as basic pathology including liver function and compared to baseline levels before commencement of drug dosing. A urine toxicology test and alcohol breathalyzer test are also performed, to determine whether subjects have been alcohol-free and drug-free at the time of testing. Subjects are tested according to DASS-21, PANAS, 14-day TLFB, and AUQ, and neuropsychological evaluations e.g., according to CANTAB are performed. Changes in mood, drinking behavior and neuropsychology are evaluated for both groups by comparison with baseline evaluations. […]
# [4] = acute oxytocin 0.3 and 1 mg/kg I/P, 10 min before 70 min session
# [5] = dosing period and follow-up, than before therapy
# [6] = intranasal 80 IU per day for 28 days
smiles,measurement,setting,value
CC[C@H](C)[C@@H]1NC(=O)[C@H](Cc2ccc(O)cc2)NC(=O)[C@@H](N)CSSC[C@@H](C(=O)N2CCC[C@H]2C(=O)N[C@@H](CC(C)C)C(=O)NCC(N)=O)NC(=O)[C@H](CC(N)=O)NC(=O)[C@H](CCC(N)=O)NC1=O [oxytocin],duration of the reduction in alcohol preference and alcohol intake,"P rats [1]; P rats, after 1 mg/kg oxytocin",7-8 weeks
same,intake of Vodka Cruiser (alcohol consumption),P rats [1]; [4],significant reduction; also recorded: reduced their alcohol consumption significantly
same,intake of sucrose solution,P rats [1]; [4],significant reduction
same,time intake of the alcoholic beverage remained suppressed,P rats [1]; following oxytocin,at least 55 days
same,reduction of baseline alcohol intake,"P rats [1]; male and female P rats, 2 days following treatment, FIG. 1",about 50%
same,"reduction in alcohol consumption, comparison between the sexes",P rats [1]; male versus female P rats,comparable between the sexes
same,preference for alcohol (Vodka Cruiser versus 3% sucrose),P rats [1]; treated male and female P rats,shift towards a preference for alcohol-free solution; also recorded: reduced preference for alcohol
same,alcohol intake and preference for alcohol,"P rats [2]; alcohol-naïve P rats, both sexes, repeated doses",reduced alcohol intake and preference for alcohol; also recorded: reduced significantly
same,preference for Vodka Cruiser versus 3% sucrose solution,"P rats [2]; male alcohol-naïve P rats, 10 x 1 mg/kg/day, final 4 days of testing",significantly reduced preference for Cruiser over sucrose
same,intake of sucrose,P rats [2]; male oxytocin-treated rats relative to both female groups,higher
same,intake of Cruiser (alcohol),P rats [2]; male oxytocin-treated rats versus the other groups,less intake of alcohol; also recorded: lower
same,"reduced acquisition of alcohol preference, comparison between the sexes",P rats [2]; males compared to females,greater in males compared to females
same,criteria for problem drinking,[3]; at 3-month or 6-month or 12-month follow-up,do not meet the criteria for problem drinking
same,heavy drinking days,"[3]; dosing period and 3-, 6-, 12-month follow-up, than before therapy",fewer heavy drinking days
same,cognitive biases to alcohol-related cues,[3]; dosing period and follow-up,reduced cognitive biases
same,"liver function, BMI, and heart function",[3]; dosing period and follow-up,gradually improved
same,reward driven motivation to consume alcohol,[3]; dosing period and follow-up,reduced reward driven motivation
same,abstinent days,[3]; [5],more abstinent days
same,period of time between heavy drinking days,[3]; [5],longer period of time between heavy drinking days
same,alcohol intake,[3]; [6],reduced alcohol intake
same,short-term memory function and general mood,[3]; [6],enhanced short-term memory function and general mood
same,impulsivity,"[3]; intranasal 80 IU per day for 28 days, dependent and non-dependent drinkers",decreased impulsivity
same,sleep behavior,[3]; throughout the medication dosing period,improved sleep behavior
